The values below come from the supplement of paper PMC10307832.

Test in all cases: relative viability (nuclei count vs DMSO), 5 days (fraction); higher = more cells survive
Compound in the assay “Wnt-C59 + Foretinib”: CC1=NC=CC(=C1)C2=CC=C(C=C2)CC(=O)NC3=CC=C(C=C3)C4=CN=CC=C4 [Wnt-C59] + COc1cc2c(Oc3ccc(NC(=O)C4(C(=O)Nc5ccc(F)cc5)CC4)cc3F)ccnc2cc1OCCCN1CCOCC1 [Foretinib] (partner 0.25 µM)
Put shortly: (§1)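 Relative viability was taken as the ratio of nuclei in treated wells to nuclei in vehicle wells. Lung cancer cell lines in 1536-well plates received compounds by pin tool one day after seeding, either one drug alone or a fixed anchor-drug dose plus five library-drug doses (not always all listed) in √10 steps. Nuclei were counted on 4× images after 5 days of treatment, and values are medians of duplicate plates.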

Compound in the assay “Wnt-C59 + Vorinostat”: CC1=NC=CC(=C1)C2=CC=C(C=C2)CC(=O)NC3=CC=C(C=C3)C4=CN=CC=C4 [Wnt-C59] + O=C(CCCCCCC(=O)Nc1ccccc1)NO [Vorinostat] (partner 1 µM)
Put shortly:
as §1

Compound in the assay “Lapatinib + Alpelisib”: CS(=O)(=O)CCNCc1ccc(-c2ccc3ncnc(Nc4ccc(OCc5cccc(F)c5)c(Cl)c4)c3c2)o1 [Lapatinib] + Cc1nc(NC(=O)N2CCC[C@H]2C(N)=O)sc1-c1ccnc(C(C)(C)C(F)(F)F)c1 [Alpelisib] (partner 2 µM)
An outline of the steps: as §1

Compound in the assay “Wnt-C59 + Crizotinib”: CC1=NC=CC(=C1)C2=CC=C(C=C2)CC(=O)NC3=CC=C(C=C3)C4=CN=CC=C4 [Wnt-C59] + C[C@@H](Oc1cc(-c2cnn(C3CCNCC3)c2)cnc1N)c1c(Cl)ccc(F)c1Cl [Crizotinib] (partner 1 µM)
An outline of the steps:
as §1

Take HARA: the relative viability came to 0.823 with Wnt-C59 + Foretinib (first compound 0.001 µM); 0.765 with Wnt-C59 + Foretinib (first compound 0.01 µM); 1.01 in the assay with Wnt-C59 + Foretinib (first compound 0.03162 µM); 0.841 in the assay with Wnt-C59 + Foretinib (first compound 0.1 µM); 0.729 with Wnt-C59 + Vorinostat (first compound 0.001 µM); 0.533 with Wnt-C59 + Vorinostat (first compound 0.01 µM). Besides, the relative viability is 0.511 with Wnt-C59 + Vorinostat (first compound 0.03162 µM); 0.481 in the assay with Wnt-C59 + Vorinostat (first compound 0.1 µM); 0.739 in the assay with Lapatinib + Alpelisib (first compound 0.02 µM); 0.573 with Lapatinib + Alpelisib (first compound 0.06325 µM); 0.593 in the assay with Lapatinib + Alpelisib (first compound 0.2 µM); 0.625 with Lapatinib + Alpelisib (first compound 0.6325 µM). For the same cell line, the relative viability with Lapatinib + Alpelisib (first compound 2 µM) turned out to be 0.288; with Wnt-C59 + Crizotinib (first compound 0.001 µM), 1.04; with Wnt-C59 + Crizotinib (first compound 0.01 µM) it was 0.642; with Wnt-C59 + Crizotinib (first compound 0.03162 µM), 1.15; with Wnt-C59 + Crizotinib (first compound 0.1 µM), 1.06.
HCC-15: the relative viability came to 1.09 with Wnt-C59 + Foretinib (first compound 0.001 µM); 1.09 with Wnt-C59 + Foretinib (first compound 0.01 µM); 1.04 in the assay with Wnt-C59 + Foretinib (first compound 0.03162 µM); 0.992 with Wnt-C59 + Foretinib (first compound 0.1 µM); 0.851 with Wnt-C59 + Vorinostat (first compound 0.001 µM); 0.817 with Wnt-C59 + Vorinostat (first compound 0.01 µM). In addition, the relative viability with Wnt-C59 + Vorinostat (first compound 0.03162 µM) worked out at 1.05; with Wnt-C59 + Vorinostat (first compound 0.1 µM), 0.892; with Lapatinib + Alpelisib (first compound 0.06325 µM), 0.799; with Lapatinib + Alpelisib (first compound 0.2 µM) it was 0.843; with Lapatinib + Alpelisib (first compound 0.6325 µM), 0.857; with Lapatinib + Alpelisib (first compound 2 µM) it was 0.797. Moreover, the relative viability in the assay with Wnt-C59 + Crizotinib (first compound 0.001 µM) was found to be 0.891; in the assay with Wnt-C59 + Crizotinib (first compound 0.01 µM), 0.82; in the assay with Wnt-C59 + Crizotinib (first compound 0.03162 µM) it was 0.919; with Wnt-C59 + Crizotinib (first compound 0.1 µM) it was 0.85.
Regarding HCC-44, the relative viability with Wnt-C59 + Vorinostat (first compound 0.001 µM) was determined as 1.16; in the assay with Wnt-C59 + Vorinostat (first compound 0.01 µM) it was 1.02; in the assay with Wnt-C59 + Vorinostat (first compound 0.03162 µM), 1.13; in the assay with Wnt-C59 + Vorinostat (first compound 0.1 µM), 1.12; in the assay with Lapatinib + Alpelisib (first compound 0.02 µM) it was 0.689; with Lapatinib + Alpelisib (first compound 0.06325 µM) it was 0.621. Moreover, the relative viability in the assay with Lapatinib + Alpelisib (first compound 0.2 µM) was 0.75; in the assay with Lapatinib + Alpelisib (first compound 0.6325 µM), 0.873; with Lapatinib + Alpelisib (first compound 2 µM), 0.535; in the assay with Wnt-C59 + Crizotinib (first compound 0.001 µM), 0.878; in the assay with Wnt-C59 + Crizotinib (first compound 0.01 µM), 0.78; with Wnt-C59 + Crizotinib (first compound 0.03162 µM) it was 0.753. For the same cell line, the relative viability with Wnt-C59 + Crizotinib (first compound 0.1 µM) came to 0.757.
As for HCC-78, the relative viability with Wnt-C59 + Foretinib (first compound 0.001 µM) came out at 0.496; with Wnt-C59 + Foretinib (first compound 0.01 µM), 0.511; with Wnt-C59 + Foretinib (first compound 0.03162 µM), 0.518; with Wnt-C59 + Foretinib (first compound 0.1 µM), 0.515; in the assay with Wnt-C59 + Vorinostat (first compound 0.001 µM), 0.439; in the assay with Wnt-C59 + Vorinostat (first compound 0.01 µM), 0.407. Moreover, the relative viability with Wnt-C59 + Vorinostat (first compound 0.03162 µM) was found to be 0.476; with Wnt-C59 + Vorinostat (first compound 0.1 µM), 0.484; in the assay with Lapatinib + Alpelisib (first compound 0.06325 µM) it was 0.277; with Lapatinib + Alpelisib (first compound 0.2 µM) it was 0.305; in the assay with Lapatinib + Alpelisib (first compound 0.6325 µM), 0.26; with Lapatinib + Alpelisib (first compound 2 µM), 0.15. For the same cell line, the relative viability with Wnt-C59 + Crizotinib (first compound 0.001 µM) was 0.343; with Wnt-C59 + Crizotinib (first compound 0.01 µM) it was 0.284; in the assay with Wnt-C59 + Crizotinib (first compound 0.03162 µM) it was 0.303; in the assay with Wnt-C59 + Crizotinib (first compound 0.1 µM), 0.339.
For the cell line HCC-366, the relative viability came out at 0.896 with Wnt-C59 + Foretinib (first compound 0.001 µM); 0.975 with Wnt-C59 + Foretinib (first compound 0.01 µM); 0.922 in the assay with Wnt-C59 + Foretinib (first compound 0.03162 µM); 0.89 with Wnt-C59 + Foretinib (first compound 0.1 µM); 0.338 with Wnt-C59 + Vorinostat (first compound 0.001 µM); 0.2 in the assay with Wnt-C59 + Vorinostat (first compound 0.01 µM). The relative viability with Wnt-C59 + Vorinostat (first compound 0.03162 µM) is 0.309; with Wnt-C59 + Vorinostat (first compound 0.1 µM) it was 0.335; in the assay with Lapatinib + Alpelisib (first compound 0.06325 µM), 0.282; in the assay with Lapatinib + Alpelisib (first compound 0.2 µM) it was 0.381; in the assay with Lapatinib + Alpelisib (first compound 0.6325 µM) it was 0.446; with Lapatinib + Alpelisib (first compound 2 µM) it was 0.242. For the same cell line, the relative viability with Wnt-C59 + Crizotinib (first compound 0.001 µM) was determined as 0.45; with Wnt-C59 + Crizotinib (first compound 0.01 µM), 0.541; with Wnt-C59 + Crizotinib (first compound 0.03162 µM) it was 0.605; with Wnt-C59 + Crizotinib (first compound 0.1 µM), 0.472.
